Measurements from US20110105623A1 (Biogenic Innovations, LLC, priority 2009, published 2011).
Where “and” joins values, the source holds several entries; their conditions need not be identical. Equal entries are not always repeated. Where two headings read alike, the source gives them in different places.

What was measured:
Aspergillus niger [1] = experiment: USP Antimicrobial Effectiveness Test (AET), MSM in TSB; assay type: cell-based; set-up: key to AET microorganism count: Colonies too numerous to count (TNTC); settings: for Log Reduction from Initial Microorganism Inoculum: 1:10 dilution of MSM, 14, 28 Days; for AET microorganism count: 48 hrs
Excerpt: Compounds or formulated products having antimicrobial activity may be evaluated with the United States Pharmacopeia (USP) Antimicrobial Effectiveness Test (AET). The AET involves the addition of specified microorganisms (Candida albicans, Aspergillus niger, Escherichia coli, Pseudomonas aeruginosa and Staphylococcus aureus) directly to a test product at relatively high concentrations to simulate contamination. The product is held for one month, with weekly analysis of microorganism levels. Depending on the route of administration of a product, satisfaction of the AET generally requires a 1 to 3 log reduction in bacteria from initial levels, which should occur in one to two weeks, with no further increase in bacteria after two weeks. For yeast and mold, no increase from the initial inoculums level is permitted.
Inoculations were made using Candida albicans, Aspergillus niger, Escherichia coli, Pseudomonas aeruginosa and Staphylococcus aureus. Tryptic soy broth (TSB) was used as the culturing media. […] The inoculated media was held for one month, during which time the added microorganisms were enumerated weekly to determine if they were growing, dying off, or remaining near the initial inoculation level. Data points were measured in triplicate at 48 hours, 3, 5, 14, 20, 28, and 30 days. The acceptance criteria for antimicrobial effectiveness are described in detail in the USP, herein incorporated by reference.

Aspergillus niger [2] = experiment: USP <51> AET in cosmetic cream/composition; assay type: cell-based; settings: 10% MSM in cosmetic cream without preservative, 48 hrs-28 days
Staphylococcus aureus = experiment: USP <51> AET in cosmetic cream/composition; assay type: cell-based; settings: for Log Reduction from Initial Microorganism Inoculum: 14, 28 Days
[3] = system: normal flora found in the milks; experiment: Standard plate counts of non-probiotic microorganisms in Acidophilus milks; assay type: cell-based
[4] = system: Acidophilus plus Bifidus milk microorganisms; experiment: Recovery from Acidophilus plus bifidus milk fortified with MSM; assay type: cell-based; settings: for Lag Recovery of Lactobacillus acidophilus in Milk fortified with MSM Day 14: A/B 2.5 MSM; for Lag Recovery of Lactobacillus acidophilus in Milk fortified with MSM Day 7 / Lag Recovery of Lactobacillus acidophilus in Milk fortified with MSM Day 21 / Lag Recovery of Lactobacillus acidophilus in Milk fortified with MSM Day 28: A/B […] MSM
[5] = system: MDCK cells (ATCC # CCL-34); experiment: Cytotoxicity of MSM; assay type: cell-based, Canis; settings: for Test Product Cytotoxicity (CPE): MDCK
Excerpt: Determination of test product cytotoxicity.
B. Toxicity Control for Pre-Treatment Test.

[6] = system: Rhinovirus type 14 (ATCC #VR-284); assay type: cell-based
[7] = system: Streptococcus Pneumonia (#10341); experiment: Bacterial viability by bioluminescent ATP assay
[8] = system: Streptococcus Pyogenes (Lancefield group A, #10096); experiment: Bacterial viability by bioluminescent ATP assay

## Methylsulfonylmethane [MSM]
Aspergillus niger [1]; 14 days after inoculation
  Log Reduction from Initial Microorganism Inoculum: 4.3 log
Aspergillus niger [1]; 28 days after inoculation
  Log Reduction from Initial Microorganism Inoculum: 4.5 log
Aspergillus niger [1]; 1:100 dilution of MSM
  AET microorganism count: TNTC*
Aspergillus niger [1]; 1:1000 dilution of MSM
  AET microorganism count: TNTC*
Aspergillus niger [2]; 48 hours after inoculation
  AET microorganism count: 8 × 10^3
Aspergillus niger [2]; 14 days after inoculation
  AET microorganism count: 6 × 10^3
Aspergillus niger [2]; 28 days after inoculation
  AET microorganism count: 5 × 10^2
Staphylococcus aureus; 10% MSM in cosmetic cream without preservative, 48 hrs-28 days
  AET microorganism count: <10
Staphylococcus aureus; 10% MSM in preservative-free jojoba cream
  Log Reduction from Initial Microorganism Inoculum: 5.6 log
Staphylococcus aureus; 10% MSM, Composition #1
  Log Reduction from Initial Microorganism Inoculum: 5.7 log
Staphylococcus aureus; 10% MSM, Composition #2
  Log Reduction from Initial Microorganism Inoculum: 5.7 log
[3]; 5.0% MSM, throughout the study
  growth of normal flora (standard plate counts): did not allow any significant growth
[3]; A/B milk […] MSM, Day 0
  Growth of non-probiotic microorganisms in Acidophilus Milk: 370 cfu per mL
[3]; A/B milk […] MSM, Day 3
  Growth of non-probiotic microorganisms in Acidophilus Milk: 480 cfu per mL
[3]; A/B milk […] MSM, Day 7
  Growth of non-probiotic microorganisms in Acidophilus Milk: 570 cfu per mL
[3]; A/B milk […] MSM, Day 14
  Growth of non-probiotic microorganisms in Acidophilus Milk: 1460 cfu per mL
[3]; A/B milk […] MSM, Day 21
  Growth of non-probiotic microorganisms in Acidophilus Milk: 3500 cfu per mL
[3]; A/B milk […] MSM, Day 28
  Growth of non-probiotic microorganisms in Acidophilus Milk: 110000 cfu per mL
[3]; Acidophilus milk 0.50% MSM, Day 0, duplicates
  Growth of non-probiotic microorganisms in Acidophilus Milk: 20 cfu per mL and 30 cfu per mL
[3]; Acidophilus milk 0.50% MSM, Day 3, duplicates
  Growth of non-probiotic microorganisms in Acidophilus Milk: 10 cfu per mL
[3]; Acidophilus milk 0.50% MSM, Day 7, duplicates
  Growth of non-probiotic microorganisms in Acidophilus Milk: 10 cfu per mL
[3]; Acidophilus milk 0.50% MSM, Day 14, duplicates
  Growth of non-probiotic microorganisms in Acidophilus Milk: 20 cfu per mL
[3]; Acidophilus milk 0.50% MSM, Day 21, duplicates
  Growth of non-probiotic microorganisms in Acidophilus Milk: 20 cfu per mL and 40 cfu per mL
[3]; Acidophilus milk 5% MSM, Day 0, duplicates
  Growth of non-probiotic microorganisms in Acidophilus Milk: 10 cfu per mL and 20 cfu per mL
[3]; Acidophilus milk 5% MSM, Day 3, duplicates
  Growth of non-probiotic microorganisms in Acidophilus Milk: 10 cfu per mL
[3]; Acidophilus milk 5% MSM, Day 7, duplicates
  Growth of non-probiotic microorganisms in Acidophilus Milk: 10 cfu per mL and 20 cfu per mL
[3]; Acidophilus milk 5% MSM, Day 14, duplicates
  Growth of non-probiotic microorganisms in Acidophilus Milk: 20 cfu per mL and 10 cfu per mL
[3]; Acidophilus milk 5% MSM, Day 21, duplicates
  Growth of non-probiotic microorganisms in Acidophilus Milk: 20 cfu per mL and 10 cfu per mL
[3]; Acidophilus milk 5% MSM, Day 28, duplicates
  Growth of non-probiotic microorganisms in Acidophilus Milk: 10 cfu per mL
[3]; Acidophilus milk […] MSM, Day 0, duplicates
  Growth of non-probiotic microorganisms in Acidophilus Milk: 10 cfu per mL
[3]; Acidophilus milk […] MSM, Day 14, duplicates
  Growth of non-probiotic microorganisms in Acidophilus Milk: <10 cfu per mL
[4]; Day 14-24
  Lag Recovery of Lactobacillus acidophilus in Milk fortified with MSM Day 14: 13.35 logs
[4]; Day 14-48
  Lag Recovery of Lactobacillus acidophilus in Milk fortified with MSM Day 14: 13.47 logs
[4]; Day 14-72
  Lag Recovery of Lactobacillus acidophilus in Milk fortified with MSM Day 14: 13.43 logs
[4]; Day 7-24
  Lag Recovery of Lactobacillus acidophilus in Milk fortified with MSM Day 7: 13.44 logs
[4]; Day 7-72
  Lag Recovery of Lactobacillus acidophilus in Milk fortified with MSM Day 7: 12.77 logs
[4]; Day 21-24
  Lag Recovery of Lactobacillus acidophilus in Milk fortified with MSM Day 21: 13.08 logs
[4]; Day 21-48
  Lag Recovery of Lactobacillus acidophilus in Milk fortified with MSM Day 21: 12.08 logs
[4]; Day 21-72
  Lag Recovery of Lactobacillus acidophilus in Milk fortified with MSM Day 21: 12.33 logs
[4]; Day 28-24
  Lag Recovery of Lactobacillus acidophilus in Milk fortified with MSM Day 28: 12.67 logs
[4]; Day 28-48
  Lag Recovery of Lactobacillus acidophilus in Milk fortified with MSM Day 28: 13.19 logs
[4]; Day 28-72
  Lag Recovery of Lactobacillus acidophilus in Milk fortified with MSM Day 28: 12.00 logs
[4]; Ac/Bf […] MSM, Day 7
  Recovery of Lactobacillus acidophilus in Milk fortified with MSM Day 7, initial start data: 8.42 logs
[4]; Ac/Bf […] MSM, Day 14-0
  Recovery of Lactobacillus acidophilus in Milk fortified with MSM Day 14, initial start data: 3.70 logs
[4]; Ac/Bf […] MSM, Day 21
  Recovery of Lactobacillus acidophilus in Milk fortified with MSM Day 21, initial start data: 3.37 logs
[4]; Ac/Bf […] MSM, Day 28
  Recovery of Lactobacillus acidophilus in Milk fortified with MSM Day 28, initial start data: 1.94 logs
[4]; Ac/Bf […] MSM, Hour 0
  Day 7 log recovery growth rate increase from start time of zero: 0.00 logs
  Day 14 log recovery growth rate increase from start time of zero: 0.00 logs
  Day 21 log recovery growth rate increase from start time of zero: 0.00 logs
[4]; Ac/Bf […] MSM, Hour 24
  Day 7 log recovery growth rate increase from start time of zero: 5.02 logs
  Day 14 log recovery growth rate increase from start time of zero: 9.65 logs
  Day 21 log recovery growth rate increase from start time of zero: 9.71 logs
[4]; Ac/Bf […] MSM, Hour 48
  Day 7 log recovery growth rate increase from start time of zero: −0.94 logs
  Day 14 log recovery growth rate increase from start time of zero: 0.12 logs
  Day 21 log recovery growth rate increase from start time of zero: −1.00 logs
[4]; Ac/Bf […] MSM, Hour 72
  Day 7 log recovery growth rate increase from start time of zero: 0.27 logs
  Day 14 log recovery growth rate increase from start time of zero: −0.04 logs
  Day 21 log recovery growth rate increase from start time of zero: 0.25 logs
[4]; Ac/Bf […] MSM, Time 0
  Day 28 log recovery growth rate increase from start time of zero: 0.00 logs
[4]; Ac/Bf […] MSM, Time 24
  Day 28 log recovery growth rate increase from start time of zero: 10.73 logs
[4]; Ac/Bf […] MSM, Time 48
  Day 28 log recovery growth rate increase from start time of zero: 0.52 logs
[4]; Ac/Bf […] MSM, Time 72
  Day 28 log recovery growth rate increase from start time of zero: −1.19 logs
[5]; 0.5%
  Test Product Cytotoxicity (CPE): 00
[5]; 1%
  Test Product Cytotoxicity (CPE): 00
[5]; 2%
  Test Product Cytotoxicity (CPE): 00
[5]; 3%
  Test Product Cytotoxicity (CPE): 00
[5]; 4%
  Test Product Cytotoxicity (CPE): 00
[5]; 5%
  Test Product Cytotoxicity (CPE): 00
[5]; MSM 6% through 0.5%
  cytotoxic effect: no visible cytotoxic effect
[5]; kills 50% of uninfected cells
  TC50: approximately 7%
[6]
  Average Log Stimulation: 0.053log10 and 0.11log10
  Average Percent Stimulation: 11.49% and 22.38%
  Average TCID50: 4.42log10 and 5.00log10 and 5.58log10 and 5.42log10 and 5.67log10 and 5.25log10
  Log Stimulation: 0.08log10 and 0.00log10 and 0.17log10
  TCID50: 4.25log10 and 4.50log10 and 4.75log10 and 5.00log10 and 5.25log10 and 5.50log10 and 6.00log10 and 5.75log10
[6]; 1% MSM
  average log10 reduction: 0.14 log10
  average percent reduction: 27.56%
[6]; 2% MSM
  average log10 reduction: 0.42 log10
  average percent reduction: 61.98%
[6]; 3% MSM
  average log10 reduction: 0.11 log10
  average percent reduction: 22.38%
[6]; 4% MSM
  average log10 reduction: 0.28 log10
  average percent reduction: 47.52%
[6]; log(inhibitor) vs. normalized response, variable slope
  HillSlope, best-fit value: 0.6280
[6]; log(inhibitor) vs. normalized response, variable slope, dose in mM
  LogIC50, best-fit value: 1.582
[7]
  IC50: 15.97%
[7]; 5% MSM alone
  reduced viability by: approximately 5%
[8]
  IC50: 10.26%
